In article PMC12951562, “SH2scan: Mapping SH2 Domain-Ligand Binding Selectivity for Inhibitors and Degraders” (Journal of Medicinal Chemistry, 2026):
Read-outs that look alike come from different tables or passages of the source.

Legend:
[1] = target: T1, STAT3(S614R)-nonphosphorylated (Homo sapiens, UniProt P40763, S614R); experiment: biochemical; type: binding; settings: for percent of DMSO vehicle control at 10 µM / remaining activity at 10 µM: read-out: percent of DMSO vehicle control; for remaining activity at 10 µM: primary screen
T1 construct: made in house; host or cells: HEK293 (transient transfection), unpurified extract, dephosphorylated by endogenous phosphatases

[2] = target: T2, STAT3(Y640F)-nonphosphorylated (Homo sapiens, UniProt P40763, Y640F); experiment: biochemical; type: binding; settings: for percent of DMSO vehicle control at 10 µM / remaining activity at 10 µM: read-out: percent of DMSO vehicle control; for remaining activity at 10 µM: primary screen
T2 construct: made in house; host or cells: HEK293 (transient transfection), unpurified extract, dephosphorylated by endogenous phosphatases

[3] = target: T3, SYK(SH2dom1.dom2.) (Homo sapiens, UniProt P43405); type: binding; settings: primary screen, 10 μM
T3 construct: the SH2 domains for these targets are expressed in tandem constructs; made in house; host or cells: HEK293 (transient transfection), unpurified extract

[4] = target: T4, PTPN11(SH2dom.N-term.) (Homo sapiens, UniProt Q06124); type: binding; settings: primary screen, 10 μM
T4 construct: SH2dom.N-term. denotes SH2 domain closest to N-terminus of protein; made in house; host or cells: HEK293 (transient transfection, unpurified extract)
T4 sequence (Q06124 6-102 limits assumed): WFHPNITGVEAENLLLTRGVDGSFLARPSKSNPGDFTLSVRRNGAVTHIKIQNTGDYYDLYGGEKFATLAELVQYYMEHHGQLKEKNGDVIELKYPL

[5] = target: T5, STAT5A (Homo sapiens, UniProt P42229); experiment: biochemical; type: binding; settings: for percent of DMSO vehicle control at 10 µM / remaining activity at 10 µM: read-out: percent of DMSO vehicle control; for remaining activity at 10 µM: primary screen
T5 construct: made in house; host or cells: HEK293 (transient transfection), unpurified extract
T5 sequence (P42229 1-794): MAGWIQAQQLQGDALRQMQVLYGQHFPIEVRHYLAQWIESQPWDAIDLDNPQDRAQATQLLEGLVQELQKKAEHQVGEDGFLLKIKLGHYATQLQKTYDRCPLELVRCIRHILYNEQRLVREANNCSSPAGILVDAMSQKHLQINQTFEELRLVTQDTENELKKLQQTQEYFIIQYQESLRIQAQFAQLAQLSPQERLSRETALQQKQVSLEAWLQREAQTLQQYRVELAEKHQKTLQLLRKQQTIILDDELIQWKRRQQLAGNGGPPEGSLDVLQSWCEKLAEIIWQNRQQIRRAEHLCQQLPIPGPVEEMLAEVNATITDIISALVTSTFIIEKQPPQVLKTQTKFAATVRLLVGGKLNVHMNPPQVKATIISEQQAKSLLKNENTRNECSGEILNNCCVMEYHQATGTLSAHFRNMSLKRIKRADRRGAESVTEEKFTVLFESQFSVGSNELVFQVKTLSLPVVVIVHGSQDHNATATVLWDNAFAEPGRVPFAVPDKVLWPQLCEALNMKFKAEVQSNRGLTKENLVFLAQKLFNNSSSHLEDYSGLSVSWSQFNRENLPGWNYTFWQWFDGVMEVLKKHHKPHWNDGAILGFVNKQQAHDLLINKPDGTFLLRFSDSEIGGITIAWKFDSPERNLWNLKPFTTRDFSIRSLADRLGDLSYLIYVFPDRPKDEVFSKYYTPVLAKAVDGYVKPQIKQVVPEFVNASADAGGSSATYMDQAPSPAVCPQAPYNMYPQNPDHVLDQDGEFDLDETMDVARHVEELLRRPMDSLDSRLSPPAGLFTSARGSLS

[6] = target: T6, STAT3(D661Y)-nonphosphorylated (Homo sapiens, UniProt P40763, D661Y); experiment: biochemical; type: binding; settings: for percent of DMSO vehicle control at 10 µM / remaining activity at 10 µM: read-out: percent of DMSO vehicle control; for remaining activity at 10 µM: primary screen
T6 construct: made in house; host or cells: HEK293 (transient transfection), unpurified extract, dephosphorylated by endogenous phosphatases

[7] = target: T7, CISH (Homo sapiens, UniProt Q9NSE2); experiment: biochemical; type: binding; settings: for remaining activity at 10 µM: read-out: percent of DMSO vehicle control; for Kd: dose-response, read-out: KD
T7 construct: the DNA-tagged SH2 domain concentrations used in this study were <0.1 nM; made in house; host or cells: HEK293 (transient transfection; unpurified extract)
T7 sequence (Q9NSE2 82-163 limits assumed): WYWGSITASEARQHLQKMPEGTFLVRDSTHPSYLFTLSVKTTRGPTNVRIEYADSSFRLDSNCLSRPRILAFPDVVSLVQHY

[8] = target: T8, STAT5B (Homo sapiens, UniProt P51692); experiment: biochemical; type: binding; settings: for percent of DMSO vehicle control at 10 µM / remaining activity at 10 µM: read-out: percent of DMSO vehicle control; for remaining activity at 10 µM: primary screen
T8 construct: made in house; host or cells: HEK293 (transient transfection), unpurified extract
T8 sequence (P51692 1-787): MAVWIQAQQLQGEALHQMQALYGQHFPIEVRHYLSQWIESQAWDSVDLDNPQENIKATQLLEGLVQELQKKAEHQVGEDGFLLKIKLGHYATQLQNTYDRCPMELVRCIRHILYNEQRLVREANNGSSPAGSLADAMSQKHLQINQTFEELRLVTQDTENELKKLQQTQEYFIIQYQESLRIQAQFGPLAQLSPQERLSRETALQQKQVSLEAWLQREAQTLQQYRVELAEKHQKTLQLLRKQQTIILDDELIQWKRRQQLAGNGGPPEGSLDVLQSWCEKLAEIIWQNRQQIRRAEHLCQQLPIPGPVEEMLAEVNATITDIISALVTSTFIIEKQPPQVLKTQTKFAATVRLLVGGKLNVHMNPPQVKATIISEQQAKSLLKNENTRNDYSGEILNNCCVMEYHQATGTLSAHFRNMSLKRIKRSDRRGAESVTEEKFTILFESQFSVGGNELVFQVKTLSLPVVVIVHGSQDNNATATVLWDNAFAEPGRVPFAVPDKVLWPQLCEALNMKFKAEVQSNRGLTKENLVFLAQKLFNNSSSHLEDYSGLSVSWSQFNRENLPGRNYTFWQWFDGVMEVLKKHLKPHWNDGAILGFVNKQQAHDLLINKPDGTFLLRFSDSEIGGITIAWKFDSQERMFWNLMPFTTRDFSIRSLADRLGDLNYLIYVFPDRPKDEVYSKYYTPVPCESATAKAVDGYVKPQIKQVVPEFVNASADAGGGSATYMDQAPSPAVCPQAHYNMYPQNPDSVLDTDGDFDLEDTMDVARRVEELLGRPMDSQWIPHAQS

[9] = target: T9, STAT3 (Homo sapiens, UniProt P40763); experiment: biochemical; type: binding; settings: for percent of DMSO vehicle control at 10 µM / remaining activity at 10 µM: read-out: percent of DMSO vehicle control; for remaining activity at 10 µM: primary screen
T9 construct: made in house; host or cells: HEK293 (transient transfection), unpurified extract

[10] = target: T10, ZAP70(SH2dom1.dom2.) (Homo sapiens, UniProt P43403); experiment: biochemical; settings: read-out: percent of DMSO vehicle control
T10 sequence (P43403 1-254 limits assumed): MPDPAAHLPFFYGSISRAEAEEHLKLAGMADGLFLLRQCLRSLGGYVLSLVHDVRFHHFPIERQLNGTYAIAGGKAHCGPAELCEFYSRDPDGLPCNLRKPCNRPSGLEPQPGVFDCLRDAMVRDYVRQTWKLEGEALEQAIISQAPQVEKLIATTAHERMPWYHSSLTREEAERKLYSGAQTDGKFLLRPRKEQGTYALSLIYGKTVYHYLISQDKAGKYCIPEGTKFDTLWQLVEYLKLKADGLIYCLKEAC

| Structure (SMILES) | percent of DMSO vehicle control at 10 µM [1] [%] | percent of DMSO vehicle control at 10 µM [2] [%] | percent of DMSO vehicle control [3] [%] | percent of DMSO vehicle control [4] [%] | percent of DMSO vehicle control at 10 µM [5] [%] | percent of DMSO vehicle control at 10 µM [6] [%] | remaining activity at 10 µM [7] [%] | percent of DMSO vehicle control at 10 µM [8] [%] | percent of DMSO vehicle control at 10 µM [9] [%] | remaining activity at 10 µM [10] [%] | Kd ([1]; dose-response, read-out: KD) [nM] | remaining activity at 10 µM [1] [%] | Kd ([2]; dose-response, read-out: KD) [nM] | remaining activity at 10 µM [2] [%] | Kd ([5]; dose-response, read-out: KD) [nM] | remaining activity at 10 µM [5] [%] | Kd ([6]; dose-response, read-out: KD) [nM] | remaining activity at 10 µM [6] [%] | Kd [7] [nM] | remaining activity at 10 µM ([7]; primary screen, 10 μM) [%] | other results |
| --- | --- | --- | --- | --- | --- | --- | --- | --- | --- | --- | --- | --- | --- | --- | --- | --- | --- | --- | --- | --- | --- |
| NC(=O)CC[C@H](NC(=O)[C@@H]1CC[C@@H]2CCN(C(=O)CCCCCC#Cc3cccc4c3CN(C3CCC(=O)NC3=O)C4=O)C[C@H](NC(=O)c3cc4cc(C(F)(F)P(=O)(O)O)ccc4[nH]3)C(=O)N21)C(=O)NC(c1ccccc1)c1ccccc1 (stereo partly drawn) [SD-36] | 1.6 | 0.2 ± 0.6 | 104.6 | 89.9±0.7 | 3.4 ± 0.4 | 0 | 42.8 ± 5.7 | 5.7 ± 0.1 | 0.1 ± 0.1 | 95.6 ± 1.3 |  |  |  |  |  |  |  |  |  |  | Kd ([1]; dose-response): 9.7 ± 4.1 nM; Kd ([2]; dose-response): 80 ± 27 nM; Kd ([5]; dose-response): 1600 ± 670 nM; Kd ([6]; dose-response): 24 ± 12 nM; Kd ([8]; dose-response): 2030 ± 820 nM; Kd ([9]; dose-response): 21 nM |
| CC(=O)N1CC[C@H]2CC[C@@H](C(=O)N[C@@H](CCC(N)=O)C(=O)NC(c3ccccc3)c3ccccc3)N2C(=O)[C@@H](NC(=O)c2cc3cc(C(F)(F)P(=O)(O)O)ccc3[nH]2)C1 [SI-109] | 0.1 | 5.8 ± 3.7 | 121.8 | 109.2 | 101 | 0.6 ± 0.2 | 102 | 109 | 0.4 ± 0.1 | 129 |  |  |  |  |  |  |  |  |  |  | Kd [1]: 5 ± 0.56 nM; Kd [2]: 78 ± 44 nM; Kd [5]: 7030 ± 2200 nM; Kd [6]: 21 ± 6.8 nM; Kd [8]: 18000 ± 4000 nM; Kd [9]: 15 nM |
| C/C(=C\C(=O)N[C@H](C(=O)N1CCC[C@H]1C(=O)N(c1ccccc1)c1ccc(I)cc1)C(C)(C)C)c1ccc(OP(=O)(O)O)cc1 [STAT6-IN-1] |  |  | 61.2±11.0 | 76.7±1.3 |  |  |  |  |  | 51.4 | 88 ± 31 | 0 | 102 ± 44 | 0 | 9.1 ± 4.3 | 0 | 1000 ± 800 | 0 | 3600 ± 640 | 1.6 ± 2.3 | Kd ([8]; dose-response, read-out: KD): 16 ± 3.2 nM; remaining activity at 10 µM [8]: 0%; Kd ([9]; dose-response, read-out: KD): 180 ± 0.01 nM; remaining activity at 10 µM [9]: 0% |
| CC(C)(C)[C@H](NC(=O)/C=C/c1ccc(OP(=O)(O)O)cc1)C(=O)N1CCC[C@H]1C(=O)N(c1ccccc1)c1ccc(I)cc1 [STAT6-IN-3] |  |  | 65.2±43.9 | 73.9±34.6 |  |  |  |  |  | 60.7 ± 32.9 | 140 ± 71 | 0.1 ± 0.1 | 95 ± 40 | 2.4 ± 6.1 | 46 ± 19 | 0 | 1900 ± 2300 | 4.4 ± 3.7 | 4200 ± 1100 | 26.8 ± 11.8 | Kd ([8]; dose-response, read-out: KD): 69 ± 42 nM; remaining activity at 10 µM [8]: 0%; Kd ([9]; dose-response, read-out: KD): 370 ± 162 nM; remaining activity at 10 µM [9]: 0.7 ± 0.2% |
